Test results reported in patent US12637500B2, “Tumor antigen peptide” (Niigata University, priority 2015, dated 2026).

Columns and labels:
[1] = tested on: HLA-A24; experiment: HLA-A24 binding assay (MFI shift on T2-A24 cells); set-up: species or system human; settings: for binding to HLA-A24: T2-A24 cells, MFI shift
Method: T2-A24 cells, which are HLA-A24-expressing T2 cells, were preincubated in a CO2 incubator at 27° C. overnight. The cells collected were resuspended in Opti-MEM and plated on a round bottom 96 well plate (Corning) with about 1×10^5 cells/200 μL per well. A subject peptide was added at concentrations of 0.33 μM, […], and 10 μM, and incubation was carried out in a CO2 incubator at 27° C. for 3 hours and subsequently at 37° C. for 2.5 hours. Subsequently, the cells were subjected to centrifugation (380 g, 5 minutes) as they were on the plate, resuspended in 100 μL of a C7709A2 monoclonal antibody-producing hybridoma culture supernatant, and incubated on ice for 45 to 60 minutes. The cells were washed with ice-cooled PBS and then incubated together with an FITC-conjugated goat anti-mouse IgG antibody (KPL, Gaithersburg, MD) on ice for 30 minutes. The cells were washed with ice-cooled PBS as they were on the plate, then resuspended in 1% formaldehyde and PBS, and analyzed by a FACScan (BD Biosciences, Mountain View, CA), and the mean fluorescence intensity (MFI) shift (fluorescence increase as a result of stabilization by binding peptide) due to an increase in the amount of stable HLA-A24 molecules was thus measured. A cell treated with nonbinding peptide GK12 (concentration 0 to 10 μM) has a constant MFI and it was used as a negative control.
The MFI shift (AMFI) for a peptide concentration of 1 μM was measured for 26 types of randomly selected peptides of the natural peptides obtained in Example 1 above. A score was also calculated for these peptides using NetMHC3.4, and correlation with ΔMFI was investigated.

[2] = tested on: human PBMC; experiment: CTL induction from PBMC by peptide stimulation; type: cell-based; settings: peptide 10 μg/mL, PBMC of HLA-A24-positive healthy controls, method of Example 5 (1)
Method: Peripheral blood was collected using a heparin-containing 50 ML syringe from HLA-A24-positive healthy controls who had given informed consent. The whole blood was layered in a 50 mL tube (Falcon) to which 13 mL of Lymphoprep (Nycomed) had been added, and subjected to centrifugation at 2000 rpm for 30 minutes. A PBMC layer precipitated on the Lymphoprep layer was recovered using a pipette and washed three times with PBS, thus giving human PBMC.
About 3×10^7 cells/plate of the human PBMC separated above and 10 mL of Hepes-modified RPMI1640 medium (Sigma) containing 2-mercaptoethanol (final concentration 55 μM), L-glutamine (final concentration 2 mM), as antibiotics streptomycin (final concentration 100 μg/mL) and penicillin G (final concentration 100 U/mL), and 5% serum component were placed in each well of a […] for cell culture (BECTON DIKINSON), and suspension cultured. PVT1-derived natural antigen peptide of SEQ ID No: 1 (hereinafter referred to as ‘HF10’) or SUV39H2-derived natural antigen peptide of SEQ ID No: 2 (hereinafter referred to as ‘RF8’) were added thereto at a concentration of 10 μg/mL. After culturing was carried out for 2 days, IL-2 was added at a final concentration of 50 U/mL, and culturing was carried out for a further 2 weeks. […]

Row | Substance | MFI of T2-A24 cells treated with peptide ([1]; concentration 0 to 10 μM, negative control peptide) | binding to HLA-A24 [1] | CTL induction [2]
1 | GK12: synthetic nonbinding peptide used as negative control for HLA-A24 binding (GYISPYFINTSK) [reference compound] | constant MFI |  | 
2 | HWNDTRPAHF [SEQ ID No: 1, PVT1-derived natural antigen peptide] |  | high binding | A plurality of CTL clones were induced
3 | VYTYIQSRF [SEQ ID No: 5, DYRK4-derived natural peptide] |  | high binding | 
4 | KYVKDFHKF [SEQ ID No: 3, ZNF724P-derived natural peptide] |  | high binding | 
5 | IFQGNVHNF [SEQ ID No: 4, SNRNP40-derived natural peptide] |  | high binding | 
6 | RYGNVSHF [SEQ ID No: 2, SUV39H2-derived natural antigen peptide] |  | high binding | A plurality of CTL clones were induced
